# Data: patent publication US10603298B2, “Succinate dehydrogenase inhibitors (SDHi's)” (Medical Research Council, priority 2014, dated 2020)
# How the values were obtained:
# [1] = administered orally; cited from earlier work
# [2] = system: adult primary rat cardiomyocytes; experiment: ROS production (DHE oxidation) in adult primary cardiomyocytes during in situ IR; format: cell-based; conditions: 40 min ischaemia then reoxygenation, 4 mM in ischaemic buffer
# Experimental: FIG. 13: Tracking cardiomyocytes ROS levels in primary cardiomyocytes during in situ IR. Primary rat cardiomyocytes were subjected to 40 min ischaemia and reoxygenation with ROS levels tracked throughout the experiment by ratiometric measurement of dihydroethidium (DHE) oxidation. […] Representative traces of each condition are shown. The highlighted window indicates the period of the experiment expanded in detail in FIG. 3.a.
# Male Sprague-Dawley rats (300-370 g) were terminally anaesthetised via IP injections of 200 mg/kg sodium pentobarbitone and 330 U/kg heparin. Hearts were excised and retrograde perfused on a Langendorff-perfusion system with 13 mL/min oxygenated KH buffer at 37° C. Cells were isolated by collagenase digestion using standard methods^41. […]
# Cells were imaged within 36 hours of plating. […] Simulated ischaemia was achieved by replacing the buffer with a pre-gassed, hypoxic recording buffer simulating ischaemia (as above but lacking glucose and containing 10 mM sodium lactate, 14.8 mM KCl; pH 6.4) and by covering the heated stage with a transparent, gas-impermeant lid, forming a small chamber into which argon was forced to maintain hypoxia. pO2 was routinely measured as <2.0 mm Hg during simulated ischaemia. […]
# ROS production was estimated by oxidation of DHE. […] All measured cell parameters were analysed with Fiji image processing software.
smiles,measurement,setting,value
COC(=O)CC(=O)OC [dimethyl malonate],LD50,[1],approximately 5 gms per kilogram
same,ROS production / DHE oxidation upon reperfusion,[2],reduced DHE oxidation upon reperfusion
